This note sets out measurements from patent US11226337B2, “Chemoproteomic profiling of protein electrophilic and oxidative post-translational modifications” (Zenagem, LLC, priority 2017, dated 2022).

Assay [1] has as its target T1, PLD3 Phospholipase D3 (Q8IV08) (Homo sapiens, UniProt Q8IV08).
T1 construct: shared by both the endogenous and recombinant forms of these proteins; endogenous in cells; host or cells: HEK293T and MDA-MB-231
T1 sequence (Q8IV08 1-490): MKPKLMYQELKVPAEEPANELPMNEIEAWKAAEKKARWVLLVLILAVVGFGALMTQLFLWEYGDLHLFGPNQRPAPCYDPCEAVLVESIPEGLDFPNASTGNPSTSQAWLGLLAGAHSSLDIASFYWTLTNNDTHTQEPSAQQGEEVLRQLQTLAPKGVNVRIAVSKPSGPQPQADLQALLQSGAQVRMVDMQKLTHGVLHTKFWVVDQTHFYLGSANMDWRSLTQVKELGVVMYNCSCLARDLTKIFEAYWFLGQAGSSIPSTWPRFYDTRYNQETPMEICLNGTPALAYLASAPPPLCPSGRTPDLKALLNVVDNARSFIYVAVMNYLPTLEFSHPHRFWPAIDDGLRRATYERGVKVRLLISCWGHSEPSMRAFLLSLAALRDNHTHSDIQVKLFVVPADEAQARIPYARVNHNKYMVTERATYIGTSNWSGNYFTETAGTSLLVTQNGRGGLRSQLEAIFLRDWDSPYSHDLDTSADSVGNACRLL
Description: SILAC RP-ABPP. Conditions: SILAC H/L, HEK293T. It is filed as cell-based.

Assay [2] deals with T2, FASTICD5 FAST kinase domain containing (Q7L8L6) (Homo sapiens, UniProt Q7L8L6).
T2 construct: shared by both the endogenous and recombinant forms of these proteins; endogenous in cells; host or cells: HEK293T and MDA-MB-231
T2 sequence (Q7L8L6 28-764): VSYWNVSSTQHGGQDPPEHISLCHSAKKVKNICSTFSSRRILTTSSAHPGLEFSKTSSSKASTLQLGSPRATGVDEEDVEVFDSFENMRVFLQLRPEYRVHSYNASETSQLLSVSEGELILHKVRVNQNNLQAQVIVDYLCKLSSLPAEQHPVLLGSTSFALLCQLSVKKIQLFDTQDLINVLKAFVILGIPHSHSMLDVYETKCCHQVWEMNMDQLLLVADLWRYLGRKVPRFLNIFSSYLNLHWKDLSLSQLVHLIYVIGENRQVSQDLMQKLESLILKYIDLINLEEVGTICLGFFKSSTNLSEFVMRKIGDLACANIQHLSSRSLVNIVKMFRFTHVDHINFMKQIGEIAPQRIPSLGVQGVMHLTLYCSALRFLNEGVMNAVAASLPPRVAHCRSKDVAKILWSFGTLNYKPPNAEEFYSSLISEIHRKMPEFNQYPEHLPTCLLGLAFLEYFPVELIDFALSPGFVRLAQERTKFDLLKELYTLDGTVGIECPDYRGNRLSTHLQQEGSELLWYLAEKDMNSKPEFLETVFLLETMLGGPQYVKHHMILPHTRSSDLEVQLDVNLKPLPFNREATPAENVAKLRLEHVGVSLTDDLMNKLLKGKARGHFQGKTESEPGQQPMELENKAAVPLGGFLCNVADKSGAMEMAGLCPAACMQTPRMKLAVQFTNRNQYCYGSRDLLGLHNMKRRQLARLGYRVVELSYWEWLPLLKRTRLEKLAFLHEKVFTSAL
In words: SILAC RP-ABPP. The class given is cell-based. The note with it: SILAC H/L, HEK293T.

Molecules are shown by their SMILES.

As for `C#CCNN.Cl` [probe 1, prop-2-yn-1-ylhydrazine hydrochloride], the values for the enrichment ratioavg in assay [1] (probe 1 3 mM 0.5 h vs probe 3) and in assay [2] (probe 1 3 mM 0.5 h vs probe 3) were 12 and 18, respectively. The competition ratioavg in assay [1] (probe 1 vs probe 1+10x probe 3) was 2; in assay [2] (probe 1 vs probe 1+10x probe 3) it was 3.
Regarding `C#CCCNC(=O)c1ccc(NN)cc1.Cl` [probe 2, N-(but-3-yn-1-yl)-4-hydrazinylbenzamide hydrochloride], the enrichment ratioavg turned out to be 5 in assay [1] (probe 2 1 mM 0.5 h vs probe 4) and 10 in assay [2] (probe 2 1 mM 0.5 h vs probe 4). Besides, the competition ratioavg in assay [1] (probe 2 vs probe 2+10x probe 4) is reported as 2; in assay [2] (probe 2 vs probe 2+10x probe 4), 3.
